One molecule from PubChem BioAssay AID588784 (Southern Research Specialized Biocontainment Screening …, 2011) can be followed below.

For the assay, the system named is HSV-infected cells, viral DNA qPCR Ct reduction. Nature of the assay: enhancers of HSV replication by viral DNA qPCR, confirmation, HSV replication enhancer project, cell-based (AID 588784). The settings on record: at 10 µM; active compounds read high. A general note: Real-time PCR tracks product formation cycle by cycle.

Values joined by “and” are separate entries in the source; they are usually repeats but may differ in a detail not shown here. Equal values may be shown once. Active and inactive are the calls of the source. How the calls were made is not given here.

Consider `COc1cc(C(=O)OCCCN2CCCN(CCCOC(=O)c3cc(OC)c(OC)c(OC)c3)CC2)cc(OC)c1OC`, for which the Ct reduction is -0.309 (inactive) and -0.64 (inactive).
